Test results: ChEMBL document CHEMBL5620350, “Recent advances in the development of dual ALK/ROS1 inhibitors for non-small cell lung cancer therapy” (Eur J Med Chem, 2023)
Values belong to the molecule of their own block, whether it stands above or below them.

How the values were obtained:
[1] = target: T1, ALK tyrosine kinase receptor (Homo sapiens, UniProt Q9UM73); experiment: Inhibition of ALK (unknown origin) incubated for 1 hr by HTRF assay
[2] = target: T2, Proto-oncogene tyrosine-protein kinase ROS (Homo sapiens, UniProt P08922); experiment: Inhibition of ROS1 (unknown origin) incubated for 1 hr by HTRF assay
T2 sequence (P08922 whole entry): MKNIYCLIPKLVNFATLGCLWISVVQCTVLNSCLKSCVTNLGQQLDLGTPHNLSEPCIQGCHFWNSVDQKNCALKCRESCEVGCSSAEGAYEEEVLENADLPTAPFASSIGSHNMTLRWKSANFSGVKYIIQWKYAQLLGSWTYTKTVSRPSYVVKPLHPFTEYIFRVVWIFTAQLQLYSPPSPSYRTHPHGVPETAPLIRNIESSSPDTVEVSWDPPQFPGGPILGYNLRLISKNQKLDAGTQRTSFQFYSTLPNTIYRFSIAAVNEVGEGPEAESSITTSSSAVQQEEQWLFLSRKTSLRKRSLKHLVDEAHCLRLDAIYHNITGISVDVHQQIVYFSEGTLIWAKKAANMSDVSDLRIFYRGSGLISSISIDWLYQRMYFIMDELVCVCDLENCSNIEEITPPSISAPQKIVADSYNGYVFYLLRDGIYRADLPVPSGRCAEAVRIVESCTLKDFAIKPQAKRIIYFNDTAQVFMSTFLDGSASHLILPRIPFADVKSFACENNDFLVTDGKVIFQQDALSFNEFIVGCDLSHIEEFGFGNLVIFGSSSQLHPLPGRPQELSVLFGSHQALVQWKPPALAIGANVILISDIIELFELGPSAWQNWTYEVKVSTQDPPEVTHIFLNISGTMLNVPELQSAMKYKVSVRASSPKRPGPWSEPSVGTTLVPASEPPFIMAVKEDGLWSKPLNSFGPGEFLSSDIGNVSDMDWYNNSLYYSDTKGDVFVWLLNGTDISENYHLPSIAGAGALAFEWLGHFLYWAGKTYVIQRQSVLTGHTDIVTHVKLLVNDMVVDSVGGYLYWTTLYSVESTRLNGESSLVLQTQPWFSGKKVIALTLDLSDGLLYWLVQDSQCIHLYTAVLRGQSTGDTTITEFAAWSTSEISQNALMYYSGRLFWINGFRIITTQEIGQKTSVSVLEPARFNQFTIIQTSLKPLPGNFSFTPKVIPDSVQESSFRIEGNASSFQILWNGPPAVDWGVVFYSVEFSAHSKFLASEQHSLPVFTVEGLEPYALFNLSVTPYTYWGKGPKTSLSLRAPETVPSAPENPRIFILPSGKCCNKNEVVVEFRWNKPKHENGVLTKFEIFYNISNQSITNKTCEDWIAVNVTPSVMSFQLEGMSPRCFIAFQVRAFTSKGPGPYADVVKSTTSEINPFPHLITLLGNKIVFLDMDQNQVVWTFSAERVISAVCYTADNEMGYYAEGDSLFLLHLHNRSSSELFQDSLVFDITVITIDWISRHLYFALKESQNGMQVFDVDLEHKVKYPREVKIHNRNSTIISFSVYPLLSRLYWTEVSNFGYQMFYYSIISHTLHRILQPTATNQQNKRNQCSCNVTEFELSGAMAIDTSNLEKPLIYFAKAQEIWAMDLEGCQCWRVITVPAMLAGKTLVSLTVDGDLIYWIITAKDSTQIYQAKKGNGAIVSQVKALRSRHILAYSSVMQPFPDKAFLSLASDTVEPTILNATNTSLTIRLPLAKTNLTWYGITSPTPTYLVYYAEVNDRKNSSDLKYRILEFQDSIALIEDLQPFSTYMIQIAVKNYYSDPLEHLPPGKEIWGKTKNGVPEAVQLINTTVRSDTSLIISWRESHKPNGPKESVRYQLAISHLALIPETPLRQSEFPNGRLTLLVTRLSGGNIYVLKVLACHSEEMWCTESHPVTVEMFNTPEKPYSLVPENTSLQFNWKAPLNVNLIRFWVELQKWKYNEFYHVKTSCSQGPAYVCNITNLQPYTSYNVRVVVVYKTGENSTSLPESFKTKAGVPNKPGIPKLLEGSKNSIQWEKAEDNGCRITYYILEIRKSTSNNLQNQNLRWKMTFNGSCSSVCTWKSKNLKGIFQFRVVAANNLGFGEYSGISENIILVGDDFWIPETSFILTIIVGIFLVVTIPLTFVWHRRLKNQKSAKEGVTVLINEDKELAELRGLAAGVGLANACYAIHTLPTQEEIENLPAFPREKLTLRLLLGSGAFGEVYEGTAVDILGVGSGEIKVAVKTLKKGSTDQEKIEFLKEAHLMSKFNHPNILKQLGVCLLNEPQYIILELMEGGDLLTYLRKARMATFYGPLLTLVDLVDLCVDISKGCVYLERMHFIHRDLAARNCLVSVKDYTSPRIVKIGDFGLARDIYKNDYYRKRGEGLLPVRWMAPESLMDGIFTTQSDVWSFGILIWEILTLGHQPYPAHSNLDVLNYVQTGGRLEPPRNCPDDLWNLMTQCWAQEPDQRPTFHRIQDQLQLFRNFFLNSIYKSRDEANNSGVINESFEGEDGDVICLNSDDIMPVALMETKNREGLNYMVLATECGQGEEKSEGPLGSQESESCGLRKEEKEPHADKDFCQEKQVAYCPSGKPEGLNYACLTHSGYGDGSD

[3] = target: T2, Proto-oncogene tyrosine-protein kinase ROS; experiment: Inhibition of human ROS1 using KKKSPGEYVNIEFG as substrate incubated for 120 mins in presence of [gamma-33P]-ATP
[4] = target: T3, Proto-oncogene tyrosine-protein kinase ROS (Homo sapiens, UniProt P08922, G2032R); experiment: Inhibition of human ROS1 G2032R mutant using KKKSPGEYVNIEFG as substrate incubated for 120 mins in presence of [gamma-33P]-ATP
TGF-beta receptor type-1 = target: T4, TGF-beta receptor type-1 (Homo sapiens, UniProt P36897); experiment: Inhibition of human […] using Casein as substrate incubated for 120 mins in presence of [gamma-33P]-ATP
T4 sequence (P36897 whole entry): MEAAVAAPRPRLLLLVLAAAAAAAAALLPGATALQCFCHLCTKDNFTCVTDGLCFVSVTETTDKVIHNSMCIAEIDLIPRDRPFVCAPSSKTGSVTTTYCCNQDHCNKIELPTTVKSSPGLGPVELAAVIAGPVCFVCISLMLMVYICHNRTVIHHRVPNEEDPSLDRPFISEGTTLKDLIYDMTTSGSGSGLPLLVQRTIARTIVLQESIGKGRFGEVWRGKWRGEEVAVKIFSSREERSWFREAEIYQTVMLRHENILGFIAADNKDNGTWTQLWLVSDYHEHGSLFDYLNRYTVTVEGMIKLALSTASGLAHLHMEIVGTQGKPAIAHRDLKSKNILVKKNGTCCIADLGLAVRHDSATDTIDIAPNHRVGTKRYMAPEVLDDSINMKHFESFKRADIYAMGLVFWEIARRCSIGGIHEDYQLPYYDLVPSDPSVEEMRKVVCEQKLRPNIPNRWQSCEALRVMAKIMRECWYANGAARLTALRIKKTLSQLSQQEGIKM

[5] = Inhibition of human […] G1202R mutant using Casein as substrate incubated for 120 mins in presence of [gamma-33P]-ATP
HCC78 = experiment: Cytotoxicity against human HCC78 cells incubated for 72 hrs by MTT assay; format: functional, cell-based
NCI-H2228 = experiment: Cytotoxicity against human NCI-H2228 cells incubated for 72 hrs by MTT assay; format: functional, cell-based; settings: NCI-H2228, 72 h
[6] = target: T1, ALK tyrosine kinase receptor; experiment: Inhibition of human ALK preincubated for 5 to 10 mins followed by substrate and ATP addition and measured after 60 mins by TR-FRET assay
[7] = target: T2, Proto-oncogene tyrosine-protein kinase ROS; experiment: Inhibition of recombinant human ROS1 preincubated for 5 to 10 mins followed by substrate and ATP addition and measured after 60 mins by TR-FRET assay
[8] = target: ALK tyrosine kinase receptor (Homo sapiens, UniProt Q9UM73, G1202R/L1196M); experiment: Inhibition of human ALK L1196M/G1202R double mutant preincubated for 5 to 10 mins followed by substrate and ATP addition and measured after 60 mins by TR-FRET assay
[9] = target: T3, Proto-oncogene tyrosine-protein kinase ROS; experiment: Inhibition of recombinant human ROS1 G2032R mutant preincubated for 5 to 10 mins followed by substrate and ATP addition and measured after 60 mins by TR-FRET assay
[10] = target: T2, Proto-oncogene tyrosine-protein kinase ROS; experiment: Inhibition of wild type ROS1 (unknown origin) expressed in BaF3 cells incubated for 4 hrs; format: cell-based
[11] = target: T1, ALK tyrosine kinase receptor; experiment: Inhibition of wild type ALK (unknown origin) expressed in BaF3 cells incubated for 4 hrs; format: cell-based
[12] = target: T1, ALK tyrosine kinase receptor; experiment: Inhibition of wild-type ALK (unknown origin)
BaF3 [13] = experiment: Antitumor activity against mouse BaF3 cells harboring wild type ROS1 assessed as tumor growth inhibition at 2.2 nM; format: functional; design: scale not given: the % may be the effect or the level left
BaF3 [14] = experiment: Antitumor activity against mouse BaF3 cells harboring ROS1 G2032 mutant assessed as tumor growth inhibition at 2.2 nM; format: functional; design: scale not given: the % may be the effect or the level left
BaF3 [15] = experiment: Antitumor activity against mouse BaF3 cells harboring EML4 ALK V1 G1202R mutant assessed as tumor growth inhibition at 2.2 nM; format: functional; design: scale not given: the % may be the effect or the level left

T1 sequence (Q9UM73 whole entry): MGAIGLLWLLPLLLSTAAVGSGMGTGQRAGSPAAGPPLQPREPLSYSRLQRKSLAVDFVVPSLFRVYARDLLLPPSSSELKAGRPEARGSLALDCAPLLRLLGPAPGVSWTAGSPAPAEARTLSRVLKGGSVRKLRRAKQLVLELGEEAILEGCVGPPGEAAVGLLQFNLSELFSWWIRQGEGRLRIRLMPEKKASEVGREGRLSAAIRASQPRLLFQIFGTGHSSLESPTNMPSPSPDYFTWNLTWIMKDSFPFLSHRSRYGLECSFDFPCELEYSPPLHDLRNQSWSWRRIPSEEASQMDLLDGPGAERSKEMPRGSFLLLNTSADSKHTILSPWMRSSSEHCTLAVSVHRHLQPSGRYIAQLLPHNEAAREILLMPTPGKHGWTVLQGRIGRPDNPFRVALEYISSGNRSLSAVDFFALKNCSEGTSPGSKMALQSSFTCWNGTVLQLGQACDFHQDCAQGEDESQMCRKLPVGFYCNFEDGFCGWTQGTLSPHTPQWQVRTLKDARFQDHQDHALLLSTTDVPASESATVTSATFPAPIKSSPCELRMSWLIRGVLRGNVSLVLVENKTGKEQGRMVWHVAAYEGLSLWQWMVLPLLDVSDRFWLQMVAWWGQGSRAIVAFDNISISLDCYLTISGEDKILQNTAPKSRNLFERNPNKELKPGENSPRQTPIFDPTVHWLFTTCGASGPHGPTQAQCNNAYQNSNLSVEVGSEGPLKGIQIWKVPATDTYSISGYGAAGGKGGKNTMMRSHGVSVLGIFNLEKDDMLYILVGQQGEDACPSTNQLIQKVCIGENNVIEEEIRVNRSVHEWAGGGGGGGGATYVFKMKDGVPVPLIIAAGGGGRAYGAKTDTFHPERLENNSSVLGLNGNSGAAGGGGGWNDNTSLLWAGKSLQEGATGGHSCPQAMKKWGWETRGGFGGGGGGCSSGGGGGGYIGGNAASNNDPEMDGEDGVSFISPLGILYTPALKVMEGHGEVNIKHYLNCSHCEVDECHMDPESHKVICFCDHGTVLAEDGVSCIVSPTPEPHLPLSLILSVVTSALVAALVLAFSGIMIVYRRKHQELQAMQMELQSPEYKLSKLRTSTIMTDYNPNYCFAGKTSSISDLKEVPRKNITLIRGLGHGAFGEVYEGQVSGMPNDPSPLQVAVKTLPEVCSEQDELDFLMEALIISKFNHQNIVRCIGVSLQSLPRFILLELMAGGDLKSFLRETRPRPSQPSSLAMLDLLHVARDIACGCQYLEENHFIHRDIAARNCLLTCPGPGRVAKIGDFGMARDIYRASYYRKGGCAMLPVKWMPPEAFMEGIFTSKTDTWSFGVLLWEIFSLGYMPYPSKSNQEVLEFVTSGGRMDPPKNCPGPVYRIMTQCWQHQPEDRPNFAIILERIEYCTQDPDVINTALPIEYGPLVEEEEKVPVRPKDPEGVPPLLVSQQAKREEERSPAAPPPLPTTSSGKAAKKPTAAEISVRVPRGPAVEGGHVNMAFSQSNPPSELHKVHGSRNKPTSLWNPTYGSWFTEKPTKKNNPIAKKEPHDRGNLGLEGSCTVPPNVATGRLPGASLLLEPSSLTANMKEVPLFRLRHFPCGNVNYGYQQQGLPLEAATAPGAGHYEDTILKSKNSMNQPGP

IC50 [1]: 1.8 nM
IC50 [2]: 3.6 nM
SMILES: COc1cc(-n2cccc2CN2CCN(C)CC2)ccc1Nc1ncc(Cl)c(Nc2ccccc2NS(C)(=O)=O)n1

IC50 [3]: < 0.5 nM
IC50 [4]: < 0.5 nM
IC50 (TGF-beta receptor type-1): < 50 nM
IC50 [5]: < 50 nM
SMILES: COc1ccc(F)cc1[C@@H](C)Nc1ccn2ncc(C3=NOC(C)(C)N3)c2n1

SMILES: COc1ccc(CNC(=O)Cn2nc(-c3ccccc3)c3cnc4ccccc4c32)cc1
IC50 (HCC78; Homo sapiens, HCC78, 72 h): 1620 nM
IC50 (HCC78; hcc78): 1610 nM
IC50 (NCI-H2228): 2710 nM

IC50 [3]: < 0.5 nM
IC50 [4]: < 0.5 nM
IC50 (TGF-beta receptor type-1): < 50 nM
IC50 [5]: < 50 nM
SMILES: CCOc1ccc(F)cc1[C@@H](C)Nc1ccn2ncc(C3=NOC(C)N3)c2n1 (some centres not stated)

IC50 [6]: 2.02 nM
IC50 [7]: 0.84 nM
IC50 [8]: 20.7 nM
IC50 [9]: 0.34 nM
SMILES: C[C@H]1Nc2ccn3ncc(c3n2)C(=O)N[C@@]2(C)CC3=CC(F)=CC1C3O2 (some centres not stated)

IC50 [10]: 2 nM
IC50 [11]: 2 nM
SMILES: C[C@H]1Nc2ccn3ncc(c3n2)C(=O)NC[C@@H](CF)Oc2ccc(F)cc21

IC50 [3]: < 0.5 nM
IC50 [4]: < 0.5 nM
IC50 (TGF-beta receptor type-1): < 50 nM
IC50 [5]: < 50 nM
SMILES: CC(C)Oc1ccc(F)cc1[C@@H](C)Nc1ccn2ncc(C3=NOC(C)N3)c2n1 (some centres not stated)

IC50 [12]: 0.6 nM
SMILES: O=C(Nc1n[nH]c2ncc(S(=O)(=O)c3cccc(F)c3)cc12)c1ccc(N2CCOCC2)cc1

SMILES: C[C@H]1CNC(=O)c2cnn3ccc(nc23)N[C@H](C)c2cc(F)ccc2O1 [REPOTRECTINIB]
Activity (BaF3 [13]): 197%
Activity (BaF3 [14]): 99%
Activity (BaF3 [15]): 99%
